In patent US20110152166A1, “METHOD OF MODULATION OF PROTEIN PHOSPHORYLATION-DEPENDENT CONFORMATIONAL TRANSITIONS WITH LOW MOLECULAR WEIGHT COMPOUNDS” (priority 2006, published 2011):

Legend:
[1] = target: T1, PDK1 activation of SGK1 [Ser422Asp] (Homo sapiens, UniProt O15530); assay: SGK1 activation by PDK1 in vitro; assay type: biochemical; conditions: compound 60 μM
T1 construct: GST (N); made in house; host or cells: HEK293
Experimental: (§1) FIG. 4—Small compounds designed to bind the HM/PIF-pocket of PDK1 can block the PDK1-dependent phosphorylation and activation of substrates that require docking to the HM/PIF-pocket of PDK1. (A) Effect of compound 1 (100 and 200 μM) on PDK1 phosphorylation of its substrate S6K1. The phosphorylation reaction was performed in vitro with [γ^32P]ATP and then separated on SDS-PAGE followed by exposure to phosphorimager. The radioactive band corresponding to phosphorylated GST-56K1-T2[Thr412Glu] (S6K[412E]) is indicated. (B) PDK1 or PDK1[Val127Leu] (PDK1[V127L]) were pre-incubated with GST-[…]N-SGK1 [Ser422Asp] […] (C) The activity of S6K was measured in vitro after glutathione sepharose purification; aliquots of purified proteins were separated on SDS-PAGE and the level of activation loop phosphorylation was visualized by immunoblotting using phospho-specific antibodies that recognize the phosphorylated activation loop, followed by stripping of the membranes and re-probing with anti-GST to verify the presence of equal amounts of protein. (D) Cells overexpressing GST-56K1-T2[Thr412Glu] were treated as in (C) but S6K activity was measured in vitro after immunoprecipitation of the GST-fusion protein with anti-GST antibodies; the level of S6K expression was analysed by western-blotting of crude extracts. […]

[2] = target: T2, PDK1[Val127Leu] activation of SGK1 [Ser422Asp] (Homo sapiens, UniProt O15530, V127L); assay: SGK activation by PDK1[Val127Leu] in vitro; assay type: biochemical; conditions: compound 60 μM
T2 construct: GST (N); made in house; host or cells: HEK293
T2 sequence (O15530 whole entry V127L): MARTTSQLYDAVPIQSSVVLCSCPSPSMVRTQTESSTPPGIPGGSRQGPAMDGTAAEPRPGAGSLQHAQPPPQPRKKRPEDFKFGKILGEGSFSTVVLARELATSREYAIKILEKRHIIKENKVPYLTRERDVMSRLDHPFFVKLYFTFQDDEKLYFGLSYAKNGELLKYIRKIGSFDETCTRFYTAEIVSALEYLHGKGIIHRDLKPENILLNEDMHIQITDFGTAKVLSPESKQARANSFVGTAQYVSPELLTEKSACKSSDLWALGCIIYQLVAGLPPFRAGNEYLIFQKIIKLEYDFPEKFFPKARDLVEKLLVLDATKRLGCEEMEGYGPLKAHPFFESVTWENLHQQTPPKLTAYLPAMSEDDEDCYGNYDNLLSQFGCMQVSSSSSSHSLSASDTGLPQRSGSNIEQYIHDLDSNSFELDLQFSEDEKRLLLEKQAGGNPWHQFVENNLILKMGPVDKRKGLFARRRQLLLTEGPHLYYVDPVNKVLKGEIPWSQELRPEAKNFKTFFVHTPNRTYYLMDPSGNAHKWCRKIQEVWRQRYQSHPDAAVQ
Experimental: as §1

PDK1 = target: T3, PDK1 (Homo sapiens, UniProt O15530); assay: PDK1 kinase activity with S6K tail peptides; assay type: biochemical
T3 sequence (O15530 1-556): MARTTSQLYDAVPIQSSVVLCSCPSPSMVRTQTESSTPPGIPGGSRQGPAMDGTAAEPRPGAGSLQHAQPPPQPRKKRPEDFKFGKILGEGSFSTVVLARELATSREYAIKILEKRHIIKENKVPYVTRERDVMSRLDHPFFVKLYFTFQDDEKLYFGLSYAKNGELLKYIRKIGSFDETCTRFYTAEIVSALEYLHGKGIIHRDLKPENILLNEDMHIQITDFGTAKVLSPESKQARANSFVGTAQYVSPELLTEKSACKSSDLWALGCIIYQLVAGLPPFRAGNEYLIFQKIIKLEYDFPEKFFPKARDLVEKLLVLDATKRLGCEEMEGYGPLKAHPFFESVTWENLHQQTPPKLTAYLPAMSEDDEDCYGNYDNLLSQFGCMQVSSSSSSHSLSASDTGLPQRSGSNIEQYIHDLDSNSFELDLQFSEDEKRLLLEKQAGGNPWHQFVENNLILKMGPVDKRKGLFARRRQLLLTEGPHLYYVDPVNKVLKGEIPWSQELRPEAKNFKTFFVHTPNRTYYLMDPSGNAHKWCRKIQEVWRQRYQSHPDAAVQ
Experimental: (§2) FIG. 21 (A) Aliquots of S6K1 protein from bar 1, 2, 5 and 6 in FIG. 5B were subjected to immunoblotting with phosphorylation site specific Ab against the activation loop or anti-HA Ab. (B) The kinase activity of PKB<143-479, prephosphorylated by PDK1 in the activation loop, was determined in the presence of increasing concentrations of synthetic PRK2 tail peptides encompassing the HM, which were either nonphosphorylated (PIFtide) or phosphorylated at the tail site (pT958-PIFtide). […] (C) The kinase activity of purified PDK1 was determined in the presence of increasing concentrations of synthetic S6K tail peptide (residues 366-395) that was either phosphorylated at T389 (S371/pT389) or phosphorylated at both 5389 and 5371 (pS371/pT389). Kinase activity is expressed as percent, and data are means+/−SD of 3 independent experiments. (D) Synthetic S371/pT389 S6K tail peptide and pS371/pT389 S6K tail peptide were biotinylated and used to coat streptavidin Sensor Chips. PDK150-360 was injected at different concentrations (0.05-5.4 mM) onto the peptide coated chips. In the inserts, the kinetic constants were obtained by fitting the data to a hyperbola using kaleidagraph software. Representative results from one of several experiments are shown.

PDK150-360 = target: T4, PDK150-360 (Homo sapiens, UniProt O15530); assay: Surface plasmon resonance, PDK1 binding to S6K tail peptides
T4 construct: the catalytic domain of PDK1 comprising residues 50-360
T4 sequence (O15530 50-360): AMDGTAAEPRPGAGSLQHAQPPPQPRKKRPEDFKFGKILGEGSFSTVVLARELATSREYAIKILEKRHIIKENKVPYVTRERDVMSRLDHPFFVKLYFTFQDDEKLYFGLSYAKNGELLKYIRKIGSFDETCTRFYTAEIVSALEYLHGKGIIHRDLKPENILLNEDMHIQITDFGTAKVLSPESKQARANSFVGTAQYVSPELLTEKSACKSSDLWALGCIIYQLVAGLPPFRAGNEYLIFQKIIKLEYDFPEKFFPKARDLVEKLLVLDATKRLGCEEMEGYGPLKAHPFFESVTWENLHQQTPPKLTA
Experimental: as §2
BiaCore analysis was performed as described in Biondi et al. (2000). […]

Compound: O=C(O)CSC(CC(=O)c1ccc(Cl)cc1)c1ccccc1 (stereo not shown) [Compound 1]
- SGK1 activation by PDK1 (in words) [1]: inhibited
- SGK activation by PDK1[Val127Leu] (in words) [2]: not inhibited

Compound: S371/pT389: synthetic S6K1 tail peptide (residues 366-395) phosphorylated in the HM
- activation of PDK1 by tail peptide (in words) (PDK1): activated to the same extent
- binding of PDK1 to tail peptide (in words) (PDK150-360): bound equally well
